Patent publication US20070299065A1, “Tetrahydropyran Derivatives as Antidiabetics” (MERCK PATENT GMBH, priority 2004, published 2007)

melting point: 174 °C
Structure (SMILES): CCc1ccn(Cc2ccccc2O[C@@H]2O[C@H](CO)[C@@H](O)[C@H](O)[C@H]2O)c(=O)c1 [compound 1, 4-ethyl-1-[2-((2S,3R,4S,5S,6R)-3,4,5-trihydroxy-6-hydroxymethyltetrahydropyran-2-yloxy)benzyl]-1H-pyridin-2-one]
